According to patent US7098219B2, “Inhibitors of cellular efflux pumps of microbes” (Wockhart Limited, priority 2000, dated 2006):

How the values were obtained:
[1] = tested on: Pseudomonas aeruginosa 23587; assay: Antibiotic diffusion assay, levofloxacin plate versus water control plate; assay type: cell-based; conditions: zone of inhibition in levofloxacin (5 mcg/ml) plate minus water control plate; Mueller Hinton Agar, 35° C. 20 hours
Procedure: Testing method for Inhibition of the Efflux Pumps of Pseudomonas aeruzinosa 23587, E. coli 2051, Streptococcus pneumoniae 3514 and Streptococcus pyozenus 26-00
Antibiotic Diffusion Assay
The activity of efflux pump inhibitor was also assessed using an antibiotic diffusion assay. For this assay Pseudomonas aeruginosa 23587 is used. Pseudomonas aeruginosa 23587 is a clinical isolate containing multiple efflux pumps which can be mexAB, mexCD, mexEF but not limited to mex classification only. Pseudomonas aeruginosa are grown in tryptic soya broth for 20 hours at 35° C. Two antibiotic assay plates are prepared in Mueller Hinton Agar using above inoculum. The bacterial count in a plate is 1×10^6 cells/ml. In one of the plates, levofloxacin is incorporated at 5 mcg/ml, while in the control plate an equivalent amount of water is added. […]. The plates are incubated at 35° C. for 20 hours and the zone of inhibition was recorded in mm (table 2). The difference in the diameter of zone of inhibition was calculated by subtracting from the diameter of the zone of inhibition in the levofloxacin containing plate the diameter of the zone of inhibition in the water containing control plate. Example, if the diameter of the zone of inhibition in the levofloxacin plate is X mm and the diameter of the zone of inhibition in the control plate is Y mm, the difference Z=X−Y and is a measure of the activity of the efflux pump inhibitor.

[2] = tested on: Mef Efflux Pump of Streptococcus pneumoniae 3514 and Streptococcus pyogenes 26-00; assay: Two plate diffusion assay for macrolide (Mef) efflux pump inhibitors, azithromycin plate versus control plate; assay type: cell-based; conditions: zone of inhibition in antibiotic plate (method: azithromycin 0.5 mcg/ml; footnote: levofloxacin) minus water control plate; strain not given

Compound: C[C@@H]1CCc2c(N3CCC(OC(=O)[C@H](N)Cc4ccccc4)CC3)c(F)cc3c(=O)c(C(=O)O)cn1c23.Cl (racemic) [Example 26 (P. aeruginosa), (RS)-(±)-9-Fuoro-6,7-dihydro-8-{4′-(D-phenylalaninoxy)piperidin-1-yl}-5-methyl-1-oxo-1H,5H-benzo[i,j]quinolizine-2-carboxylic acid hydrochloride]
- Difference in Zone diameter Z1 (mm) [1]: 12 mm

Compound: CC1CCc2c(N3CC[C@@H](O)[C@H](C)C3)c(F)cc3c(=O)c(C(=O)O)cn1c23 (mixture of isomers) [Example 33 (P. aeruginosa), (RS)-(+)-9-Fluoro-6,7-dihydro-8-(trans-4′-hydroxy-3′-methylpiperidin-1-yl)-5-methyl-1-oxo-1H,5H-benzo[i,j]quinolizine-2-carboxylic acid]
- Difference in Zone diameter Z1 (mm) [1]: 6 mm

Compound: CC1CN(c2c(F)cc3c(=O)c(C(=O)O)cn4c3c2CCC4C)CCC1O (racemic) [Example 34 (P. aeruginosa), (RS)-(+)-9-Fluoro-6,7-dihydro-8-(cis-4′-hydroxy-3′-methylpiperidin-1-yl}-5-methyl-1H,5H-benzo[i,j]quinolizine-2-carboxylic acid]
- Difference in Zone diameter Z1 (mm) [1]: 6 mm

Compound: COC1CCN(c2cc3c(c(C)c2F)c(=O)c(C(=O)O)cn3C2CC2)CC1 [Example 1 (P. aeruginosa), 1-Cyclopropyl-6-fluoro-1,4-dihydro-5-methyl-7-(4′-methoxypiperidin-1-yl)-4-oxo-quinoline-3-carboxylic acid]
- Difference in Zone diameter Z1 (mm) [1]: 13 mm

Compound: COc1c(N2CCC(N)C(C)C2)c(F)c(N)c2c(=O)c(C(=O)O)cn(C3CC3)c12 (stereo not drawn) [Example 4 (P. aeruginosa), 5-Amino-1-cyclopropyl-6-fluoro-8-methoxy-1,4-dihydro-7-(4′-amino-3′-methylpiperidin-1-yl)-4-oxo-quinoline-3-carboxylic acid]
- Difference in Zone diameter Z1 (mm) [1]: 5 mm

Compound: CCNC1CCN(c2c(F)c(N)c3c(=O)c(C(=O)O)cn(C4CC4)c3c2OC)CC1(C)C (stereo not drawn) [Example 5 (P. aeruginosa), 5-Amino-1-cyclopropyl-6-fluoro-8-methoxy-1,4-dihydro-7-{3′,3′-dimethyl-4′-ethylaminopiperidin-1-yl}-4-oxo-quinoline-3-carboxylic acid]
- Difference in Zone diameter Z1 (mm) [1]: 3 mm

Compound: Cc1c(F)c(N2CCC(N)CC2)cc2c1c(=O)c(C(=O)O)cn2-c1ccc(F)cc1F [Example 18 (Mef), 1-(2′,4′-Difluorophenyl)-6-fluoro-5-methyl-1,4-dihydro-7-(4′-aminopiperidin-1′-yl)-4-oxo-quinoline-3-carboxylic acid]
- Difference in Zone diameter Z1 (mm) [2]: 8 mm

Compound: CNC1CCN(c2cc3c(c(C)c2F)c(=O)c(C(=O)O)cn3-c2ccc(F)cc2F)CC1 [Example 19 (Mef), 1-(2′,4′-Difluorophenyl)-6-fluoro-5-methyl-1,4-dihydro-7-(4′-methylaminopiperidin-1′-yl)-4-oxo-quinoline-3-carboxylic acid]
- Difference in Zone diameter Z1 (mm) [2]: 8 mm

Compound: NC1CCN(c2nc3c(cc2F)c(=O)c(C(=O)O)cn3C2CC2)C1 (stereo not drawn) [Example 20 (Mef)]
- Difference in Zone diameter Z1 (mm) [2]: 10 mm

Compound: O=C(O)c1cn(C2CC2)c2nc(N3CC4C(C3)C4NCc3ccccc3)c(F)cc2c1=O (stereo not drawn) [Example 21 (Mef), 1-Cyclopropyl-6-fluoro-1,4-dihydro-7-{(1∝,5∝,6∝)-6-amino-N-benzyl-3-azabicyclo[3.1.0]hex-6-yl}-4-oxo-1,8-naphthyridine-3-carboxylic acid]
- Difference in Zone diameter Z1 (mm) [2]: 17 mm

Compound: NC1CCN(c2nc3c(cc2F)c(=O)c(C(=O)O)cn3-c2ccc(F)cc2F)C1 (stereo not drawn) [Example 22 (Mef)]
- Difference in Zone diameter Z1 (mm) [2]: 8 mm

Compound: O=C(O)c1cn(-c2ccc(F)cc2F)c2nc(N3C[C@@H]4[C@H](C3)[C@H]4NCc3ccccc3)c(F)cc2c1=O [Example 23 (Mef), 1-(2,4-Difluorophenl)-6-fluoro-1,4-dihydro-7-{(1∝,5∝,6∝)-6-amino-N-benzyl-3-azabicyclo[3.1.0]hex-6-yl}-4-oxo-1,8-naphthyridine-3-carboxylic acid]
- Difference in Zone diameter Z1 (mm) [2]: 15 mm

Compound: CC1(C)CN(c2nc3c(cc2F)c(=O)c(C(=O)O)cn3-c2ccc(F)cc2F)CCC1O (stereo not drawn) [Example 24 (Mef), 1-(2,4-Difluorophenyl)-6-fluoro-1,4-dihydro-7-(3′,3′-dimethyl-4′-hydroxypiperdin-1-yl)-4-oxo-naphthyridine-3-carboxylic acid]
- Difference in Zone diameter Z1 (mm) [2]: 10 mm

Compound: CC1COc2c(N3CCC(O)C(CN)C3)c(F)cc3c(=O)c(C(=O)O)cn1c23 (stereo not drawn) [Example 27 (Mef), 7H-Pyrido[1,2,3-de]-1,4-benzoxazine-9-fluoro-2,3-dihydro-3-methyl-10-(3′-aminomethyl-4′-hydroxypiperidin-1′-yl)-7-oxo-6-carboxylic acid]
- Difference in Zone diameter Z1 (mm) [2]: 16 mm

Compound: CCNC1CCN(c2c(F)c(C)c3c(=O)c(C(=O)O)cn(C4CC4)c3c2F)CC1(C)C (stereo not drawn) [Example 28 (Mef), 1-Cyclopropyl-6,8-difluoro-5-methyl-1,4-dihydro-7-(3′,3′-dimethyl-4′-ethylaminopiperidin-1-yl)-4-oxo-quinoline-3-carboxylic acid]
- Difference in Zone diameter Z1 (mm) [2]: 10 mm

Compound: Cc1c(F)c(F)c(F)c2c1c(=O)c(C(=O)O)cn2C1CC1 [Example 29 (Mef), 1-cyclopropyl-6,7,8-trifluoro-5-methyl-1,4-dihydro-4-oxo-quinoline-3-carboxylic acid]
- Difference in Zone diameter Z1 (mm) [2]: 10 mm

Compound: CCNC1CCN(c2c(F)cc3c(=O)c(C(=O)O)cn4c3c2CC[C@@H]4C)CC1(C)C (stereo partly drawn) [Example 30 (Mef), (S)-(−)-9-Fluoro-6,7-dihydro-8-(3′,3′-dimethyl-4′-ethylaminopiperidin-1-yl)-5-methyl-1-oxo-1H,5H-benzo[i,j]quinolizine-2-carboxylic acid]
- Difference in Zone diameter Z1 (mm) [2]: 8 mm

Compound: NCC1CN(c2cc3c(cc2F)c(=O)c(C(=O)O)cn3C2CC2)CCC1O (stereo not drawn) [Example 31 (Mef), 1-Cyclopropyl-6-fluoro-1,4-dihydro-7-(3′-aminomethyl-4′-hydroxypiperidin 1-yl)-4-oxo-quinoline-3-carboxylic acid]
- Difference in Zone diameter Z1 (mm) [2]: 6 mm

Compound: CC1CN(c2cc3c(cc2F)c(=O)c(C(=O)O)cn3C2CC2)CCC1N(C)C (stereo not drawn) [Example 32 (Mef), 1-Cyclopropyl-6-fluoro-1,4-dihydro-7-(4′-dimethylamino-3′-methylpiperidin-1-yl)-4-oxo-quinoline-3-carboxylic acid]
- Difference in Zone diameter Z1 (mm) [2]: 8 mm

Compound: COc1c(N2CCC(NC3CC3)CC2)c(F)c(N)c2c(=O)c(C(=O)O)cn(C3CC3)c12 [Example 33 (Mef), 5-Amino-1-cyclopropyl-6-fluoro-8-methoxy-1,4-dihydro-7-(4′-cyclopropylaminopiperidin-1-yl)-4-oxo-quinoline-3-carboxylic acid]
- Difference in Zone diameter Z1 (mm) [2]: 10 mm

Compound: CCNC1C(C)CN(c2c(F)c(N)c3c(=O)c(C(=O)O)cn(C4CC4)c3c2OC)CC1C (stereo not drawn) [Example 35 (Mef), 5-Amino-1-cyclopropyl-6-fluoro-8-methoxy-1,4-dihydro-7-{4′-ethylamino-3′,5′-dimethylpiperidin-1-yl}-4-oxo-quinoline-3-carboxylic acid]
- Difference in Zone diameter Z1 (mm) [2]: 13 mm

Compound: CCOC(=O)c1cn(-c2ccc(F)cc2F)c2nc(N3CCC(N)C(CC)C3)c(F)cc2c1=O (stereo not drawn) [Example 36 (Mef), Ethyl 1-(2,4-difluorophenyl)-6-fluoro-1,4-dihydro-7-(4-amino-3-ethylpiperidin-1-yl)-4-oxo-1,8-naphthyridine-3-carboxylate]
- Difference in Zone diameter Z1 (mm) [2]: 10 mm

Compound: CC1CN(c2nc3c(cc2F)c(=O)c(C(=O)O)cn3-c2ccc(F)cc2F)CC(C)C1N (stereo not drawn) [Example 37 (Mef), 1-(2,4-difluorophenyl)-6-fluoro-1,4-dihydro-7-(4-amino-3,5-dimethylpiperidin-1-yl)-4-oxo-1,8-naphthyridine-3-carboxylic acid]
- Difference in Zone diameter Z1 (mm) [2]: 7 mm

Compound: CCOC(=O)c1cn(-c2ccc(F)cc2F)c2nc(N3CCC(N)C(C)(C)C3)c(F)c(C)c2c1=O (stereo not drawn) [Example 38 (Mef), Ethyl 1-(2,4-difluorophenyl)-6-fluoro-5-methyl-1,4-dihydro-7-(4-amino-3,3-dimethylpiperidin-1-yl)-4-oxo-1,8-naphthyridine-3-carboxylate]
- Difference in Zone diameter Z1 (mm) [2]: 10 mm

Compound: C[C@H]1CCc2c(N3CCC(O)C(F)C3)c(F)cc3c(=O)c(C(=O)O)cn1c23 (stereo partly drawn) [Example 39 (Mef), (S)-(−)-9-Fluoro-6,7-dihydro-8-(4′-hydrox 3′-fluoropiperidin-1-yl)-5-methyl-1-oxo-1H,5H-benzo[i,j]quinolizine-2-carboxylic acid]
- Difference in Zone diameter Z1 (mm) [2]: 8 mm

Compound: C[C@H]1CCOc2c(N3CCC(N)CC3)c(F)cc3c(=O)c(C(=O)O)cn1c23.Cl [Example 40 (Mef), 10-Fluoro-11-(4-aminopiperidin-1-yl)-3,4-dihydro-4(S)-methyl-8-oxo-2H,8H-pyrido[1,2,3-ef]-1,5-benzoxazepin-7-carboxylic acid, hydrochloride]
- Difference in Zone diameter Z1 (mm) [2]: 13 mm

Compound: (RS)-(±)-6,7-dihydro-8-(cis-4′-hydroxy-3′-methylpiperidin-1-yl)-5-methyl-1-oxo-1H,5H-benzo[i,j]quinolizine-2-carboxylic acid [Example 42 (Mef)]
- Difference in Zone diameter Z1 (mm) [2]: 8 mm
